From ChEMBL document CHEMBL4219074, “Borrelidins F-I, cytotoxic and cell migration inhibiting agents from mangrove-derived Streptomyces rochei SCSIO ZJ89” (Bioorg Med Chem, 2018)
Calls of active or inactive are those of the source. The calls are words filed in the database; no cut-off is given here.

Tests used:
A549 [1] = test: Cytotoxicity against human A549 cells by CCK8 assay; assay type: functional, cell-based
CNE-2 = test: Cytotoxicity against human CNE2 cells by CCK8 assay; assay type: functional, cell-based
HeLa [2] = test: Cytotoxicity against human HeLa cells by CCK8 assay; assay type: functional, cell-based
HepG2 = test: Cytotoxicity against human HepG2 cells by CCK8 assay; assay type: functional, cell-based
MCF7 = test: Cytotoxicity against human MCF7 cells by CCK8 assay; assay type: functional, cell-based
L02 = test: Cytotoxicity against human L02 cells by CCK8 assay; assay type: cell-based
[3] = Cytotoxicity against HUVEC12 cells by CCK8 assay; assay type: cell-based; conditions: Homo sapiens
HeLa [4] = test: Inhibition of serum-induced cell migration in human HeLa cells at 0.5 to 2 times IC50 measured up to 17 hrs by wound healing assay; assay type: functional, cell-based
A549 [5] = test: Inhibition of serum-induced cell migration in human A549 cells at 0.5 to 2 times IC50 measured up to 46 hrs by wound healing assay; assay type: functional, cell-based
[6] = Inhibition of serum-induced cell migration in HUVEC12 cells at 0.5 to 2 times IC50 measured up to 17 hrs by wound healing assay; assay type: cell-based; conditions: human

| SMILES | IC50 (A549 [1]) [µM] | IC50 (CNE-2) [µM] | IC50 (HeLa [2]) [µM] | IC50 (HepG2) [µM] | IC50 (MCF7) [µM] | IC50 (L02) [µM] | IC50 [3] [µM] | inhibition (HeLa [4]) | inhibition (A549 [5]) | Activity [6] |
| --- | --- | --- | --- | --- | --- | --- | --- | --- | --- | --- |
| C[C@@H]1C[C@H](C)C[C@H](C)[C@@H](O)CC(=O)O[C@@H]([C@@H]2CCC[C@H]2C(=O)O)C/C=C\C=C(/C#N)[C@H](O)[C@@H](C)C1 | 15.2 | 14.4 | 15.1 | 17.5 | 1.15 | 22.8 | 14.3 | – | – | – |
| C[C@@H]1C[C@H](C)C[C@H](C)[C@@H](O)CC(=O)O[C@@H]([C@@H]2CCC[C@H]2C(=O)O)C/C=C\C=C(/C#N)[C@@H](O)[C@@H](C)C1 | 1.22 | 1.27 | 1.28 | 2.05 | 0.12 | 7.26 | 6.13 | Active | Active | Non-Toxic |
| C[C@@H]1C[C@H](C)C[C@H](C)[C@@H](O)CC(=O)O[C@@H]([C@@H]2CCC[C@H]2C(=O)O)C/C=C/C=C(/C#N)[C@H](O)[C@@H](C)C1 | 1.69 | 1.55 | 2.19 | 2.19 | 0.12 | 0.98 | 1.44 | – | – | – |
| COc1cccc2c1C(=O)c1c(O)c3c(c(O)c1C2=O)C[C@@](O)(C(=O)CO)C[C@@H]3O[C@H]1C[C@H](N)[C@H](O)[C@H](C)O1 [DOXORUBICIN] | 3.41 | 3.52 | – | 1.13 | – | 13.2 | 34.2 | – | – | – |
| C[C@@H]1C[C@H](C)C[C@H](C)[C@@H](O)CC(=O)O[C@@H]([C@@H]2CCC[C@H]2C(=O)O)C/C=C/C=C(/C#N)[C@@H](O)[C@@H](C)C1 | 9.2 | 9.35 | 11.6 | 14.6 | 1.21 | 8.73 | 12 | – | – | – |
| CC(=O)NC/C1=C/C=C/C[C@H]([C@@H]2CCC[C@H]2C(=O)O)OC(=O)C[C@H](O)[C@@H](C)C[C@@H](C)C[C@@H](C)C[C@H](C)[C@@H]1O | > 50 | > 50 | > 50 | > 50 | > 50 | > 50 | > 50 | inactive | inactive | – |
